Results from patent publication US20060182771A1, “Formulations for ocular treatment” (priority 2005, published 2006).

Assay: Concentration of rapamycin in the vitreous of rabbit eyes after intravitreal injection of the self-emulsifying formulation (LCMS)
Type: in vivo, New Zealand white rabbits
Settings: full vitreous homogenized, average of four eyes
Description: 50 μl of the formulation described in Example 1 were injected into the vitreous of the eye of New Zealand white rabbits. The full vitreous, which included the area into which the self-emulsifying formulation was injected, was homogenized and analyzed at 1, 5, 24, 72 and 168 hours for the concentration of rapamycin remaining therein. The average concentration of the vitreous was calculated by dividing the mass of rapamycin measured by the volume of vitreous analyzed. The analysis was by liquid chromatography mass spectroscopy (LCMS). Each timepoint represents the average of two eyes of each of two rabbits (four eyes at each timepoint).
The average concentration of rapamycin at 1, 5, 24, 72 and 168 hours was about 347, about 401, about 273, about 18, and about 1 μg/μl, respectively.

## CO[C@H]1C[C@@H]2CC[C@@H](C)[C@@](O)(O2)C(=O)C(=O)N2CCCC[C@H]2C(=O)O[C@H]([C@H](C)C[C@@H]2CC[C@@H](O)[C@H](OC)C2)CC(=O)[C@H](C)/C=C(\C)[C@@H](O)[C@@H](OC)C(=O)[C@H](C)C[C@H](C)/C=C/C=C/C=C/1C [rapamycin]
1 hour after injection of 50 μl of the Example 1 formulation into the vitreous
  average concentration of rapamycin in the vitreous: about 347 μg/μl
5 hours after injection of 50 μl of the Example 1 formulation into the vitreous
  average concentration of rapamycin in the vitreous: about 401 μg/μl
24 hours after injection of 50 μl of the Example 1 formulation into the vitreous
  average concentration of rapamycin in the vitreous: about 273 μg/μl
72 hours after injection of 50 μl of the Example 1 formulation into the vitreous
  average concentration of rapamycin in the vitreous: about 18 μg/μl
New Zealand white, rabbit, vitreous (full vitreous homogenate), other: intravitreal injection, 168 hours after injection of 50 μl of the Example 1 formulation into the vitreous
  concentration at 168 h: ~1000 µg/mL
